≈ marks a conversion by molar mass, not a printed value.
Tests used:
[1] = test system: Human colon adenocarcinoma cell HT-29; assay: cells; conditions: for IC50: HT-29, read-out: IC50 (50% inhibition concentration); for CC50: HT-29, read-out: LC50 (50% lethal concentration)
Description: (§1) In Vitro Anti-Cancer Test
(§2) The in vitro anti-cancer test was primarily used to detect the effect of a candidate drug on cancer cell proliferation. The working principle involved therein is the ability of viable cells to shift alamarBlue (AbD Serotec, UK) from its originally non-fluorescent oxidized state (non-fluorescent, blue) to a reduced form (fluorescent, red) having fluorescence via metabolic reaction. According to the fluorescent data result generated by the alamarBlue reagent thus obtained, the proliferation of the viable cells and cell activity can be quantified for detection.
(§3) In the in vitro anti-cancer tests, a candidate drug was tested at 5 different concentrations of 0.01, 0.1, 1, 10, and 100 μg/ml, and six human cancer cell lines and a normal human cell line were used (see Table 5).

[2] = test system: Human umbilical venal epithelial cell (HUVEC); assay: cells; conditions: Homo sapiens, HUVEC, read-out: IC50 (50% inhibition concentration)
Description: as §1, §2, §3

[3] = test system: Human histocytic lymphoma cell U937; assay: cells; conditions: for IC50: U-937, read-out: IC50 (50% inhibition concentration); for CC50: U-937, read-out: LC50 (50% lethal concentration)
Description: as §1, §2, §3

[4] = test system: Human breast adenocarcinoma cell MCF7; assay: cells; conditions: Homo sapiens; for IC50: MCF7, read-out: IC50 (50% inhibition concentration); for CC50: MCF7, read-out: LC50 (50% lethal concentration)
Description: as §1, §2, §3

[5] = test system: Human promyelocytic leukemia cell HL-60; assay: cells; conditions: for IC50: HL-60, read-out: IC50 (50% inhibition concentration); for CC50: HL-60, read-out: LC50 (50% lethal concentration)
Description: as §1, §2, §3

[6] = in vitro
Description: as §1, §2, §3

[7] = test system: Human lung carcinoma cell A549; assay: cells; conditions: for IC50: A549, read-out: IC50 (50% inhibition concentration); for CC50: A549, read-out: LC50 (50% lethal concentration)
Description: as §1, §2, §3

[8] = test system: Human hepatocellular carcinoma cell HepG2; assay: cells; conditions: for IC50: HepG2, read-out: IC50 (50% inhibition concentration); for CC50: HepG2, read-out: LC50 (50% lethal concentration)
Description: as §1, §2, §3

Compound	IC50 [1]	CC50 [1]	IC50 [2]	IC50 [3]	CC50 [3]	IC50 [4]	CC50 [4]	IC50 [5]	CC50 [5]	CC50 [6]	IC50 [7]	CC50 [7]	IC50 [8]	CC50 [8]
C=C(C)[C@@H]1CC[C@@]2(C)CC1c1c(O)c3c(c(CC=C(C)C)c1O2)O[C@]12C(=C[C@@H]4CC1C(C)(C)O[C@]2(/C=C/C(C)C(=O)O)C4=O)C3=O (stereo partly drawn) [Gh-2507, 3-butenoic acid, 2-methyl-4-[(1R,3aS,5S,9S,10R,13S,16aS)-3a,4,5,7,10,11,12,13-octahydro-8-hydroxy-3,3,13-trimethyl-15-(3-methyl-2-butenyl)-10-(1-methylethenyl)-7,18-dioxo-1,5:9,13-dimethano-1H,3H,9H-furo[3.4-g]oxocino[3.2-b]xanthen-1-yl],(3E)-]	1.6 µg/mL (≈ 2.54 µM)	8.6 µg/mL (≈ 13.7 µM)	0.41 µg/mL (≈ 0.652 µM)	0.45 µg/mL (≈ 0.716 µM)	2.7 µg/mL (≈ 4.29 µM)	0.19 µg/mL (≈ 0.302 µM)	2.2 µg/mL (≈ 3.5 µM)	0.2 µg/mL (≈ 0.318 µM)	5.3 µg/mL (≈ 8.43 µM)	21 µg/mL (≈ 33.4 µM)	0.13 µg/mL (≈ 0.207 µM)	0.53 µg/mL (≈ 0.843 µM)	1.7 µg/mL (≈ 2.7 µM)	7.1 µg/mL (≈ 11.3 µM)
C=C(C)C1CC[C@]2(C)C[C@H]1c1c(O)c3c(c(CC=C(C)C)c1O2)O[C@]12C(=C[C@@H]4CC1C(C)(C)O[C@]2(/C=C/C(C)C(=O)O)C4=O)C3=O (stereo partly drawn) [Gh-2508, 3-butenoic acid, 2-methyl-4-[(1R,3aS,5S,9R,10S,13R,16aS)-3a,4,5,7,10,11,12,13-octahydro-8-hydroxy-3,3,13-trimethyl-15-(3-methyl-2-butenyl)-10-(1-methylethenyl)-7,18-dioxo-1,5:9,13-dimethano-1H,3H,9H-furo[3.4-g]oxocino[3.2-b]xanthen-1-yl]-,(3E)-]	1.8 µg/mL (≈ 2.86 µM)	5.5 µg/mL (≈ 8.75 µM)	0.52 µg/mL (≈ 0.827 µM)	0.28 µg/mL (≈ 0.445 µM)	2.2 µg/mL (≈ 3.5 µM)	0.087 µg/mL (≈ 0.138 µM)	1.7 µg/mL (≈ 2.7 µM)	0.28 µg/mL (≈ 0.445 µM)	6.6 µg/mL (≈ 10.5 µM)	5.4 µg/mL (≈ 8.59 µM)	0.16 µg/mL (≈ 0.254 µM)	0.46 µg/mL (≈ 0.732 µM)	1.9 µg/mL (≈ 3.02 µM)	5.9 µg/mL (≈ 9.38 µM)
C=C(C)[C@@H]1CC[C@@]2(C)CC1c1c(O)c3c(c(CC=C(C)C)c1O2)O[C@]12C(=C[C@@H]4CC1C(C)(C)O[C@]2(C/C=C(/C)C(=O)O)C4=O)C3=O [Gh-2603-1, 2-butenoic acid, 2-methyl-4-[(1R,3aS,5S,9S,10R,13S,16aS)-3a,4,5,7,10,11,12,13-octahydro-8-hydroxy-3,3,13-trimethyl-15-(3-methyl-2-butenyl)-10-(1-methylethenyl)-7,18-dioxo-1,5:9,13-dimethano-1H,3H,9H-furo[3.4-g]oxocino[3.2-b]xanthen-1-yl]-,(2Z)-]								1 µg/mL (≈ 1.59 µM)		1.7 µg/mL (≈ 2.7 µM)			1 µg/mL (≈ 1.59 µM)	
CC(C)=CCC[C@]1(C)C=Cc2c(O)c3c(c(CC=C(C)C)c2O1)O[C@]12C(=CC4CC1C(C)(C)O[C@]2(C/C=C(/C)C(=O)O)C4=O)C3=O [Gh-2605, gambogic acid]	0.18 µg/mL (≈ 0.286 µM)	0.61 µg/mL (≈ 0.97 µM)	0.098 µg/mL (≈ 0.156 µM)	0.76 µg/mL (≈ 1.21 µM)	2.9 µg/mL (≈ 4.61 µM)	4.4 µg/mL (≈ 7 µM)	5.9 µg/mL (≈ 9.38 µM)	0.17 µg/mL (≈ 0.27 µM)	2.9 µg/mL (≈ 4.61 µM)	1.6 µg/mL (≈ 2.54 µM)	0.12 µg/mL (≈ 0.191 µM)	0.37 µg/mL (≈ 0.588 µM)	0.23 µg/mL (≈ 0.366 µM)	3.5 µg/mL (≈ 5.57 µM)
CC(C)=CCC[C@@]1(C)C=Cc2c(O)c3c(c(CC=C(C)C)c2O1)O[C@]12C(=C[C@@H]4CC1C(C)(C)O[C@]2(C/C=C(/C)C(=O)O)C4=O)C3=O [Gh-2606, epigambogic acid]	0.39 µg/mL (≈ 0.62 µM)	2 µg/mL (≈ 3.18 µM)	0.11 µg/mL (≈ 0.175 µM)	0.41 µg/mL (≈ 0.652 µM)	3.1 µg/mL (≈ 4.93 µM)	1.3 µg/mL (≈ 2.07 µM)	1.6 µg/mL (≈ 2.54 µM)	0.66 µg/mL (≈ 1.05 µM)	2.4 µg/mL (≈ 3.82 µM)	1.4 µg/mL (≈ 2.23 µM)	0.1 µg/mL (≈ 0.159 µM)	0.31 µg/mL (≈ 0.493 µM)	0.38 µg/mL (≈ 0.604 µM)	3 µg/mL (≈ 4.77 µM)
CC(C)=CCc1c2c(c(O)c3c1O[C@@]1(C)CCC4C3C1C4(C)C)C(=O)C1=C[C@@H]3CC4C(C)(C)O[C@](C/C=C(/C)C(=O)O)(C3=O)[C@@]14O2 [Gh-2607-1A]	0.24 µg/mL (≈ 0.382 µM)	0.84 µg/mL (≈ 1.34 µM)	0.43 µg/mL (≈ 0.684 µM)	0.15 µg/mL (≈ 0.239 µM)	0.37 µg/mL (≈ 0.588 µM)	0.12 µg/mL (≈ 0.191 µM)	1.5 µg/mL (≈ 2.39 µM)	0.49 µg/mL (≈ 0.779 µM)	2.6 µg/mL (≈ 4.14 µM)	1.5 µg/mL (≈ 2.39 µM)	0.19 µg/mL (≈ 0.302 µM)	0.45 µg/mL (≈ 0.716 µM)	0.43 µg/mL (≈ 0.684 µM)	3.9 µg/mL (≈ 6.2 µM)
CC(C)=CCc1c2c(c(O)c3c1O[C@]1(C)CCC4C3C1C4(C)C)C(=O)C1=C[C@@H]3CC4C(C)(C)OC(C/C=C(/C)C(=O)O)(C3=O)[C@@]14O2 [Gh-2607-B]	0.3 µg/mL (≈ 0.477 µM)	1 µg/mL (≈ 1.59 µM)	0.07 µg/mL (≈ 0.111 µM)	0.1 µg/mL (≈ 0.159 µM)	0.25 µg/mL (≈ 0.398 µM)	0.1 µg/mL (≈ 0.159 µM)	0.68 µg/mL (≈ 1.08 µM)	0.13 µg/mL (≈ 0.207 µM)	3.1 µg/mL (≈ 4.93 µM)	1.6 µg/mL (≈ 2.54 µM)	0.1 µg/mL (≈ 0.159 µM)	0.33 µg/mL (≈ 0.525 µM)	0.31 µg/mL (≈ 0.493 µM)	4 µg/mL (≈ 6.36 µM)
CC(C)=CCC[C@]1(C)C[C@H](O)c2c(O)c3c(c(CC=C(C)C)c2O1)O[C@]12C(=C[C@@H]4CC1C(C)(C)O[C@]2(C/C=C(/C)C(=O)O)C4=O)C3=O [Gh-2641-1, neogambogic acid]	2.6 µg/mL (≈ 4.02 µM)	6.8 µg/mL (≈ 10.5 µM)	0.54 µg/mL (≈ 0.835 µM)	0.26 µg/mL (≈ 0.402 µM)	1 µg/mL (≈ 1.55 µM)	0.2 µg/mL (≈ 0.309 µM)	3.5 µg/mL (≈ 5.41 µM)	0.18 µg/mL (≈ 0.278 µM)	4.5 µg/mL (≈ 6.96 µM)	4.3 µg/mL (≈ 6.65 µM)	0.15 µg/mL (≈ 0.232 µM)	0.22 µg/mL (≈ 0.34 µM)	1.7 µg/mL (≈ 2.63 µM)	4.6 µg/mL (≈ 7.11 µM)

Source: US9498463B2, “Compound obtained from gamboge resin, and medical uses of the same” (priority 2010, dated 2016)
